According to PubChem BioAssay (NCI):
Where “and” joins values, the source holds several entries; their conditions need not be identical. Equal values may be shown once.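 In this assay, cells in 96-well plates receive the compound at five concentrations for 48 hours. Endpoints are linearly interpolated between the surrounding concentrations. Abbreviation: GI50, concentration required for 50% inhibition of growth. TGI marks complete inhibition of growth.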

Tests used:
Assay in all cases: NCI anticancer screen, dose series, 48 h
[1] = system: CCRF-CEM leukemia
[2] = system: ACHN renal
[3] = system: HL-60(TB) leukemia
[4] = system: IGROV1 ovarian
[5] = system: SK-OV-3 ovarian
[6] = system: NCI-H460 lung
[7] = system: OVCAR-5 ovarian
[8] = system: MALME-3M melanoma
[9] = system: HCT-15 colon
[10] = system: HT29 colon
[11] = system: SF-539 CNS
[12] = system: SF-268 CNS
[13] = system: HOP-62 NSCLC

Structure (SMILES)	TGI [1]	TGI [2]	TGI [3]	TGI [4]	TGI [5]	TGI [6]	TGI [7]	TGI [8]	TGI [9]	TGI [10]	TGI [11]	TGI [12]	TGI [13]	GI50 [1]	GI50 [4]	GI50 [7]	GI50 [8]	GI50 [11]	GI50 [12]	GI50 [13]
O=c1c(Cc2ccccc2)c(-c2ccccc2)[nH]n1C1=NCCN1	> 100 µM	> 100 µM	> 100 µM	> 100 µM	> 100 µM	> 100 µM	> 100 µM	> 100 µM	> 100 µM	57 µM	> 100 µM	> 100 µM	> 100 µM	–	–	–	–	–	–	–
Nc1n[nH]c2ccccc12	> 100 µM	> 100 µM	> 100 µM	> 100 µM	> 100 µM	> 100 µM	> 100 µM	> 100 µM	> 100 µM	> 100 µM	> 100 µM	> 100 µM	> 100 µM	–	–	–	–	–	–	–
CCOC(=O)c1ccc(C(=O)/C(C(=O)OC(C)(C)C)=C2\CCCN2C)n1C	> 100 µM	> 100 µM	70.5 µM	> 100 µM	95.1 µM	> 100 µM	> 100 µM	> 100 µM	> 100 µM	> 100 µM	> 100 µM	> 100 µM	> 100 µM	–	–	–	–	–	–	–
COCC(=O)OC1CCn2c1nc1c2C(=O)C(C)=C(NC(C)=O)C1=O (stereo unspecified)	1.58 µM and 8.85 µM	19.5 µM	3.68 µM	32.7 µM	34.3 µM	38.2 µM	21.6 µM	4.94 µM and 6.11 µM	30.1 µM	29.5 µM	3.85 µM and 9.32 µM	9 µM and 22.4 µM	41.1 µM	0.262 µM	4.3 µM	5.91 µM	2.37 µM	2.14 µM	3.07 µM	–
C[C@@H]1C(=O)CC2(O)[C@@]13C[C@@H](OC(=O)[C@@H]3O)[C@@H](C)[C@@]21COC1=O (stereo partly specified)	> 100 µM	> 100 µM	> 100 µM	> 100 µM	> 100 µM	> 100 µM	> 100 µM	> 100 µM	> 100 µM	> 100 µM	> 100 µM	> 100 µM	> 100 µM	–	–	–	–	–	–	–
COc1cc2c3c(n(C)c(=O)c2cc1OC)-c1cc2c(cc1/C3=C/CCCCBr)OCO2	7.44 µM	> 100 µM	> 100 µM	> 100 µM	> 100 µM	> 100 µM	> 100 µM	> 100 µM	> 100 µM	> 100 µM	> 100 µM	> 100 µM	> 100 µM	–	–	–	–	7.07 µM	–	26.6 µM
CC(C)(C)OC(=O)c1ccc(NCc2cc(O)ccc2O)cc1	3.9 µM	3.46 µM	4.08 µM	5.47 µM	44.3 µM	> 73.8 µM	21.9 µM	3.99 µM	3.12 µM	33.7 µM	2.73 µM	17.3 µM	41.3 µM	–	–	–	–	–	–	–
Cc1cc(C)nc(NS(=O)(=O)c2ccc(Nc3c4ccccc4nc4c(C(=O)N5CCN(CCOS(C)(=O)=O)CC5)ccc(Cl)c34)cc2)n1	> 100 µM	> 100 µM	> 100 µM	> 100 µM	> 100 µM	> 100 µM	> 100 µM	> 100 µM	> 100 µM	> 100 µM	> 100 µM	> 100 µM	> 100 µM	–	–	–	–	–	–	–
CCOC(=O)C(NC(=O)c1ccc(N=NN(C)C)cc1)C(C)C (stereo unspecified)	> 100 µM	> 100 µM	> 100 µM	> 100 µM	> 100 µM	> 100 µM	> 100 µM	> 100 µM	> 100 µM	> 100 µM	> 100 µM	> 100 µM	> 100 µM	–	–	–	–	–	–	–
CCN(C(=O)N[C@H](C(=O)N[C@@H](C)C(=O)OC)C(C)C)c1ccccc1	> 100 µM	> 100 µM	> 100 µM	> 100 µM	> 100 µM	66.2 µM	> 100 µM	55.9 µM	> 100 µM	> 100 µM	48.4 µM	> 100 µM	> 100 µM	–	–	–	–	–	–	–
CC(C)Cc1c(C#N)c(C#N)c(N)n1Cc1ccccc1	> 100 µM	> 100 µM	> 100 µM	> 100 µM	> 100 µM	–	> 100 µM	> 100 µM	> 100 µM	> 100 µM	> 100 µM	> 100 µM	> 100 µM	–	–	–	–	–	–	–
COC(=O)C1=C(C(=O)OC)C2(C)CCC(=O)C1O2 (stereo unspecified)	> 10 µM	> 10 µM	> 10 µM	> 10 µM	> 10 µM	> 10 µM	> 10 µM	> 10 µM	> 10 µM	> 10 µM	> 10 µM	> 10 µM	> 10 µM	–	–	–	–	–	–	–
O=[N+]([O-])c1ccc2nc3c(nc2c1)-c1c2ccccc2cc2cccc-3c12	> 100 µM	–	> 100 µM	> 28.4 µM	60.9 µM	> 100 µM	> 100 µM	76.5 µM	> 100 µM	> 100 µM	40.5 µM	> 100 µM	77.2 µM	–	–	–	–	–	–	–
CC(C)(C)c1ccc2c(c1)OCc1n[nH]c(n1)COc1cc(C(C)(C)C)ccc1OCCOCCO2	26.8 µM	14.8 µM	> 100 µM	23.2 µM	15.3 µM	12.7 µM	22.6 µM	7.62 µM	18.3 µM	10.3 µM	21.5 µM	17.3 µM	19.2 µM	–	–	–	–	–	–	–
O=C(CN=C(CN(c1ccccc1)c1ccccc1)Oc1c(Cl)cc(Cl)cc1Cl)n1cnc2ccccc21	> 100 µM	> 100 µM	> 100 µM	> 100 µM	> 100 µM	> 100 µM	> 100 µM	> 100 µM	> 100 µM	> 100 µM	> 100 µM	> 100 µM	> 100 µM	–	–	–	–	–	–	–
Cc1ccc(C(=O)c2[nH]c(Nc3cc(C)ccn3)c(C(=S)Nc3ccccc3)c2N)cc1	> 100 µM	> 100 µM	> 100 µM	> 100 µM	> 100 µM	> 100 µM	> 100 µM	> 100 µM	> 100 µM	> 100 µM	> 100 µM	> 100 µM	> 100 µM	–	–	–	–	–	–	–
O=S1(=O)c2ccccc2NC(=S)N1c1ccccc1	> 100 µM	> 100 µM	> 100 µM	> 100 µM	> 100 µM	> 100 µM	> 100 µM	> 100 µM	> 100 µM	> 100 µM	> 100 µM	> 100 µM	> 100 µM	–	–	–	–	–	–	–

Structure (SMILES)	TGI [1]	TGI [2]	TGI [3]	TGI [4]	TGI [5]	TGI [6]	TGI [7]	TGI [8]	TGI [9]	TGI [10]	TGI [11]	TGI [12]	TGI [13]	GI50 [1]	GI50 [4]	GI50 [7]	GI50 [8]	GI50 [11]	GI50 [12]	GI50 [13]
N#CC(C#N)=Cc1cccc(Oc2ccccc2)c1	> 100 µM	34.1 µM	47.3 µM	67 µM	> 100 µM	61 µM	> 100 µM	43.4 µM	> 100 µM	49.9 µM	35.1 µM	40.6 µM	64.6 µM	–	–	–	–	–	–	–
Cc1ccc(-n2cc(-c3ccc(Cl)cc3)c3c2N=CN2NC(c4ccco4)=NC32)cc1 (stereo unspecified)	> 100 µM	24.5 µM	> 100 µM	72.3 µM	16 µM	> 100 µM	> 100 µM	> 100 µM	> 100 µM	> 100 µM	51.3 µM	83.6 µM	24 µM	–	–	–	–	–	–	–
CN1c2ccccc2C(=O)NC12CCN(CC1COc3ccccc3O1)CC2 (stereo unspecified)	> 100 µM	> 100 µM	> 100 µM	> 100 µM	> 100 µM	> 100 µM	> 100 µM	> 100 µM	–	> 100 µM	> 100 µM	> 100 µM	> 100 µM	–	–	–	–	–	–	–
CCOC1NC(=O)c2ccccc21 (stereo unspecified)	> 100 µM	> 100 µM	> 100 µM	> 100 µM	> 100 µM	> 100 µM	> 100 µM	> 100 µM	> 100 µM	> 100 µM	> 100 µM	> 100 µM	> 100 µM	–	–	–	–	–	–	–
CN(C)c1nc(=NCc2ccccn2)ss1	> 10 µM	> 10 µM	4.95 µM	> 10 µM	> 10 µM	> 10 µM	> 10 µM	> 8.91 µM	> 10 µM	> 10 µM	> 10 µM	> 10 µM	> 10 µM	–	–	–	–	–	–	–
CCNC(=S)N/N=C/c1ccccn1	> 100 µM	70.7 µM	23.2 µM	> 100 µM	> 100 µM	27.8 µM	> 100 µM	> 100 µM	> 100 µM	> 100 µM	29.7 µM	7.56 µM	54 µM	–	–	–	–	–	–	–
O=CN(O)CC(=O)O	> 100 µM	> 100 µM	> 100 µM	> 100 µM	> 100 µM	> 100 µM	> 100 µM	> 100 µM	> 100 µM	> 100 µM	> 100 µM	> 100 µM	> 100 µM	–	–	–	–	–	–	–
CCOC(=O)Cc1nn2c(=O)cc(C)nc2s1	> 100 µM	> 100 µM	> 100 µM	> 100 µM	> 100 µM	> 100 µM	> 100 µM	> 100 µM	> 100 µM	> 100 µM	> 100 µM	> 100 µM	> 100 µM	–	–	–	–	–	–	–
O=C(NCCCNCCCCNCCCNC(=O)C(F)(F)F)C(F)(F)F	> 100 µM	> 100 µM	> 100 µM	> 100 µM	> 100 µM	> 100 µM	> 100 µM	> 100 µM	> 100 µM	> 100 µM	> 100 µM	> 100 µM	> 100 µM	–	–	–	–	–	–	–
NC(CCSCC(F)F)C(=O)O (stereo unspecified)	> 100 µM	> 100 µM	> 100 µM	> 100 µM	–	> 100 µM	> 100 µM	> 100 µM	> 100 µM	> 100 µM	> 100 µM	> 100 µM	> 100 µM	–	–	–	–	–	–	–
C=C1CC2C(=O)N(c3ccccc3)C(=O)C2CC1n1[nH]c(=O)n(Cc2ccccc2)c1=O (stereo unspecified)	> 100 µM	> 100 µM	> 100 µM	> 100 µM	> 100 µM	> 100 µM	> 100 µM	> 100 µM	> 100 µM	> 100 µM	> 100 µM	> 100 µM	> 100 µM	–	–	–	–	–	–	–
O=C(/C=C1\C[C@H]2C=Nc3ccccc3C(=O)N2C1)NCCCCCNC(=O)/C=C1\C[C@H]2C=Nc3ccccc3C(=O)N2C1	12.7 µM	3.88 µM	6.13 µM	23.1 µM	30.3 µM	36.6 µM	33.7 µM	7.09 µM	10.6 µM	27.4 µM	> 49.9 µM	18.5 µM	31.8 µM	–	–	–	–	–	–	–
CC(O)(C(=O)N(O)c1ccc(Cl)cc1)c1ccc(Cl)cc1 (stereo unspecified)	34.4 µM	62.3 µM	35.9 µM	> 100 µM	97.5 µM	> 100 µM	> 100 µM	> 100 µM	65.7 µM	> 100 µM	> 100 µM	> 100 µM	93 µM	–	–	–	–	–	–	–
Cc1cc2c(cc1Cl)SC(NNc1cnc3ccccc3n1)=NS2(=O)=O	> 100 µM	> 100 µM	> 100 µM	> 100 µM	> 100 µM	> 100 µM	> 100 µM	> 100 µM	> 100 µM	> 100 µM	87 µM	> 100 µM	> 100 µM	–	–	–	–	–	–	–
O=c1cc(-c2ccccc2F)[nH]c2cc3c(cc12)OCO3	> 17.7 µM	> 100 µM	1.09 µM	> 100 µM	14.2 µM	> 32.3 µM	> 100 µM	> 47.3 µM	4.22 µM	0.643 µM	0.357 µM	> 100 µM	> 21 µM	–	–	–	–	–	–	–
COC(=O)C(CCSC)NC(=O)CSc1nnc(COc2ccc(Cl)cc2)n1-c1ccccc1 (stereo unspecified)	> 66.1 µM	32.1 µM	38.6 µM	31.1 µM	43.2 µM	29.8 µM	38.7 µM	37.1 µM	39.8 µM	34.7 µM	33.7 µM	34.5 µM	23.8 µM	–	–	–	–	–	–	–
CCC1(CC)C(=O)NC(=S)N=C1N	> 100 µM	> 100 µM	> 100 µM	> 100 µM	> 100 µM	> 100 µM	> 100 µM	> 100 µM	> 100 µM	> 100 µM	> 100 µM	> 100 µM	> 100 µM	–	–	–	–	–	–	–
